Results as given in patent US7041658B2, “Method of inhibiting hair growth” (Kao Corporation, priority 1998, dated 2006).

Key:
[1] = test system: regeneration of mouse back hair; test: Test of inhibiting regeneration of mouse back hair; assay type: in vivo; conditions: applied twice a day 100 μl/time to shaved back, C3H mice, vs solvent control
Experimental: Back hair of a group of 5 C3H mice aged 6 weeks was shaved over 2×4 cm^2 by means of an electric hair clipper and an electric shaver so as not to damage their skins. Each subject was applied to the shaved sites twice a day in an amount of 100 μl/time over 4 weeks. Only the solvent was applied to a control group. After 3 weeks, a photograph of each shaved site was taken at a fixed magnification for observing the state of regenerated hair to compare a regenerated hair area ratio (regenerated hair area/shaved area) of the test group with that of the control group.

elastase = test: Elastase activity-inhibiting test in cultured human fibroblast; assay type: biochemical; conditions: human fibroblast enzyme solution, substrate N-succinyl-(Ala)3-p-nitroanilide, 37° C. 1 hour
Description: (§1) Normal human fibroblasts commercially available from Dainippon Pharmaceutical Co., Ltd. were subcultured in a DMEM containing a 10% fetal bovine serum and used in this test. The cells separated from a Petri dish with a rubber policeman were suspended in physiological saline, collected by means of a low-speed centrifugal separator and washed 3 times with physiological saline. The thus-treated cells were suspended in a 0.1% Triton X-100/0.2 M Tris-HCl buffer (pH: 8.0) and ultrasonically disrupted to use as an enzyme solution.
125 mM N-Succinyl-(Ala)3-p-nitroanilide was used as a substrate for the measurement of enzyme activity, and each subject (1 μl; its concentration is shown in Table 1) was added to the enzyme solution (100 μl) to conduct a reaction at 37° C. for 1 hour. The reaction was stopped by adding acetic acid (5 μl). The amount of nitroaniline formed was determined by measuring an absorbance at 405 nm by means of a spectrophotometer.

neutral endopeptidase = biological target: T1, neutral endopeptidase (Homo sapiens, UniProt P08473); test: Neutral endopeptidase activity-inhibiting test in cultured human fibroblast; assay type: biochemical; conditions: human fibroblast enzyme solution, substrate glutaryl-Ala-Ala-Phe-4-methoxy-2-naphthylamine, read-out: Percent inhibition of neutral endopeptidase activity (%)
T1 construct: suspended in a 0.1% Triton X-100/0.2 M Tris-HCl buffer (pH: 8.0) and ultrasonically disrupted to use as an enzyme solution; host or cells: normal human fibroblasts, Triton X-100 lysate
T1 sequence (P08473 whole entry): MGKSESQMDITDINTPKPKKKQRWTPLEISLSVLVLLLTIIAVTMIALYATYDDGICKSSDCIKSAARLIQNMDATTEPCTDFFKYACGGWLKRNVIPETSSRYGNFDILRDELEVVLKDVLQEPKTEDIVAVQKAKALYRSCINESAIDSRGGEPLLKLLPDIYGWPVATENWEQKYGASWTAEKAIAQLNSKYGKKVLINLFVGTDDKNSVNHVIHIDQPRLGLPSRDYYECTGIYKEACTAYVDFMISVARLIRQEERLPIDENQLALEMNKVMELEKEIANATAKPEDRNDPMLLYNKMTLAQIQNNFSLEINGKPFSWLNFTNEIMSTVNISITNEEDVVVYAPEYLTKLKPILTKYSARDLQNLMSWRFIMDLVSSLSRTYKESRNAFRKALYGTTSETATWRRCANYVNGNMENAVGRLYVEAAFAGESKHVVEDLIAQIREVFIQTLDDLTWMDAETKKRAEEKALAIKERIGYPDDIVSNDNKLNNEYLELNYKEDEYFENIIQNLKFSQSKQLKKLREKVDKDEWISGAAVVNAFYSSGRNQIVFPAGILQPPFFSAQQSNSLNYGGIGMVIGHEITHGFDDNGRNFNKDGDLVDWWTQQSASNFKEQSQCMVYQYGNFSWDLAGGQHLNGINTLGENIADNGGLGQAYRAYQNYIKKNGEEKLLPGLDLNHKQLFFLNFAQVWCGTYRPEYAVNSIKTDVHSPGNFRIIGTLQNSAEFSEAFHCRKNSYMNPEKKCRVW
Description: as §1, with “suspended in phosphate-buffered physiological saline,” for “suspended in physiological saline,”, “times with phosphate-buffered physiological saline.” for “times with physiological saline.”
The enzyme solution (2 μl), a solution (1 μl) of each subject compound and 20 mM glutaryl-Ala-Ala-Phe-4-methoxy-2-naphthylamine as a substrate for the measurement of enzyme activity were added to 100 μl of an MES buffer solution (100 mM, pH: 6.5), to which sodium chloride (300 mM) had been added, to conduct a reaction at 37° C. for 1 hour. The reaction was stopped by adding phosphoramidone so as to give a final concentration of 0.4 μM. Aminopeptidase M was added to the reaction mixture so as to give a final concentration of 20 mU, thereby conducting a reaction at 37° C. for 15 minutes. The amount of 4-methoxy-2-naphthylamine formed was determined by measuring a fluorescence intensity at an excitation wavelength of 340 nm and a fluorescence wavelength of 425 nm by means of a fluorescence spectrophotometer, thereby finding percent inhibition of neutral endopeptidase activity by the subject compound.

Percent inhibition of elastase activity (%) (elastase; 0.1 mM) | Percent inhibition of elastase activity (%) (elastase; 1 mM) | SMILES | Percent inhibition of hair growth after 3 weeks from shaving (%) ([1]; 1 mM in 80% ethanol) | inhibition at 10 µM (neutral endopeptidase) | Percent inhibition of hair growth after 3 weeks from shaving (%) ([1]; 10 mM in 80% ethanol)
– | 68.4% | CC(C)CC(NP(=O)(O)CCc1ccccc1)C(=O)NCC(=O)O (stereo not shown) [Compound 4] | – | – | 60.5%
85.6% | – | CC(C)CC(NP(=O)(O)OC1OC(C)C(O)C(O)C1O)C(=O)NC(Cc1c[nH]c2ccccc12)C(=O)O (stereo not shown) [Compound 1] | 58.7% | 99% | –
90.2% | – | CC(C)CC(NC(=O)C(CC(C)C)NP(=O)(O)CCc1ccccc1)C(=O)O (stereo not shown) [Compound 3] | 64.8% | – | –
82.1% | – | CC(C)CC(NP(=O)(O)CCc1ccccc1)C(=O)NC(Cc1c[nH]c2ccccc12)C(=O)O (stereo not shown) [Compound 2] | 59.1% | 98.8% | –

SMILES | Percent inhibition of elastase activity (%) (elastase; 0.1 mM) | Percent inhibition of elastase activity (%) (elastase; 1 mM) | Percent inhibition of hair growth after 3 weeks from shaving (%) ([1]; 1 mM in 80% ethanol) | inhibition at 10 µM (neutral endopeptidase) | Percent inhibition of hair growth after 3 weeks from shaving (%) ([1]; 10 mM in 80% ethanol)
O=C(O)CNC(=O)C(CS)Cc1ccccc1 (stereo not shown) [Compound 8] | 89.6% | – | 71.6% | 96.3% | –
O=C(O)CCNC(=O)C(CS)Cc1ccccc1 (stereo not shown) [Compound 7] | 85.4% | – | 59.7% | 97.1% | –
